The values below come from patent USRE49873E1, “APP specific bace inhibitors (ASBIs) and uses thereof” (BUCK INSTITUTE FOR RESEARCH ON AGING, priority 2012, dated 2024).

One data set concerns the target T1, TRX-eAPP575-624 (Homo sapiens, UniProt P05067).
T1 construct: thioredoxin (TRX) and residues 575-624 of the ectodomain; made in house
Briefly: Surface plasmon resonance binding to APP ectodomain fragments. The following applies: FIG. 5B. The protocol:
Three fusion proteins were immobilized via amine coupling using 20 mM phosphate, 125 mM sodium chloride pH 7.4. The three proteins were MBP-eAPP230-624—a fusion protein containing maltose binding protein (MBP) and residues 230624 of the ectodomain of APP (90-kDa) (FC4), eAPP230-624—a protein that contains only residues 230-624 (45-kDa)(FC2), and TRX-eAPP575-624—a fusion protein containing thioredoxin (TRX) and residues 575-624 of the ectodomain (20 -kDa) (FC3). The proteins were produced as described in Libeu, et al. (2011) J. Alzheimers Dis., 25(3): 547-566 Libeu et al (2011). The flow cell FC1 was used as a control. Galangin was diluted from 10 mM solutions in DMSO to 50 μM in 1% DMSO, 20 mM sodium phosphate pH 7.4, 125 mM sodium chloride, 0.05% Tween and then serially diluted by 1.5 for 10 steps. Binding traces were recorded for each dilution with a binding phase of 60 seconds and a dissociation phase of 240 seconds. Each cycle was performed at 20° C. with a constant flow rate of 20 μl/min. […]
The binding affinity of the compounds for the ectodomain of APP was determined using SPR. […] Galangin at various concentrations were used in the flow through over the chip and the plasmon resonance signal was determined using a Biacore T100 (FIG. 5B).
In general terms: In SPR one partner is held on a chip, and binding of the other changes the refractive index at the surface.

Data set [1] has as its target T2, BACE cleavage of the P5-P5′ substrate (Homo sapiens, UniProt P56817).
T2 construct: purchased Sigma-Aldrich (kit); R&D (HTS description) CS0010; 931-AS-050
Kind of data set: ASBI assay b): P5-P5′ fluorescence substrate cleavage assay. The following applies: flavonoids at 100 uM. In kind it is biochemical. On the procedure:
As illustrated in the Examples, in one embodiment, an MBP-C125 APP695 wt fusion protein can be used as one of the substrates. The second substrate can be the commercially available P5-P5′ fluorescence substrate. Each of these substrates is incubated with recombinant BACE (R&D (cat#931-AS-050) in, for example, a 96 well plate format. For the MBP-C125 substrate the C-99 product from the BACE cleavage can be measured using an AlphaLisa assay as a readout. For the P5-5′ substrate the […] upon BACE cleavage can be used as the readout. An ASBI would inhibit the BACE cleavage of the MBP-C125 substrate while not being inhibitory of the fluorescence substrate. […]
A primary high-throughput screening (HTS) assay was set up for identification of ASBIs using a dual-substrate testing paradigm (FIGS. 3A & 3B). The previously reported (Sinha et al. (1999) Nature, 402: 537-540) BACE substrate the MBP-C125 APP695 wt fusion protein consisting of maltose binding protein fused to the carboxyterminal 125 amino acids of wild type APP, was used as the primary substrate; and the commercially available P5-P5′ fluorescence substrate, derived from the P5-P5′ residues of the BACE cleavage site of APP, was used as the secondary substrate. […]

For data set [2], the target named is T3, BACE cleavage of the MBP-C125 APP substrate (Homo sapiens, UniProt P05067).
T3 construct: purchased Sigma (methods); R&D (HTS description) B9059; 931-AS-050
T3 sequence (P05067 646-770 limits assumed): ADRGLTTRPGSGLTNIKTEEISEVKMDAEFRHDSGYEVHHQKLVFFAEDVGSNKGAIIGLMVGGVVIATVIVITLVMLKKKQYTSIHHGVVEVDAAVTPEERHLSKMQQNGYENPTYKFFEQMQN
Briefly: ASBI assay a): BACE cleavage of MBP-C125 substrate (C99 by AlphaLISA). In kind it is biochemical. The protocol: As illustrated in the Examples, in one embodiment, an MBP-C125 APP695 wt fusion protein can be used as one of the substrates. The second substrate can be the commercially available P5-P5′ fluorescence substrate. Each of these substrates is incubated with recombinant BACE (R&D (cat#931-AS-050) in, for example, a 96 well plate format. For the MBP-C125 substrate the C-99 product from the BACE cleavage can be measured using an AlphaLisa assay as a readout. For the P5-5′ substrate the […] upon BACE cleavage can be used as the readout. An ASBI would inhibit the BACE cleavage of the MBP-C125 substrate while not being inhibitory of the fluorescence substrate.
A protein construct of Maltose-Binding-Protein carrying the 125 C-terminal residues of APP (1 uL of 1 mM in water) was incubated with a flavonoid (100 uM) for 15 minutes. The mix was then submitted to cleavage by BACE (Sigma #B9059, 5 μl of 3 unit/ml in BACE buffer) for 30 minutes. After 0, 10, 20 and 30 minutes, 2 uL the reaction mixture were frozen and the different time points were quantified simultaneously for the amount of APP-C99 created. The quantification was done by using a Perkin Elmer ALPHALisa Amyloid Amyloid Beta kit (AL275C) modified by replacing the anti-Abeta acceptor beads (AL275AC) with anti-APP acceptor beads (AL275AC) and making the antibody mix with 2×ALPHALisa buffer. […]
In general terms: Bead proximity is the source of the signal in Alpha formats.

A short description of a further data set: in vivo. The arrangement: species or system mice. The following applies: mouse. On the procedure: The brain penetrance of galangin and progalangin were assessed in a standard PK comprising subcutaneous (Sub-Q) injection of 5 adult non-transgenic mice with 50 ul of a 5 mg/ml stock of compound in dimethylsulfoxide (DMSO) or a dose of 10 mg/kg for a 25 g mouse. Injected mice were anesthetized with ketamine/xylazine at 1, 2, 4, 6, and 8 hours and blood collected by cardiac puncture. The mice were then perfused with saline and brain tissue dissected and snap frozen on dry ice. Blood was centrifuged at 3000 rpm for 10 minutes and the plasma supernatant collected. Both plasma and the right hemibrain were sent to Integrated Analytical Solutions (IAS, Berkeley, Calif.) with a reference sample of compound for compound level analysis in tissue and plasma. The compound levels were determined using a LC-MS/MS approach.
CNS exposure studies were performed and consisted of a time-course design to collect heparinized plasma and brains. Following sc administration of the galangin or progalangin (compound-2) at 10 mg/kg, plasma and brain levels of the compounds were determined by quantitative LC/MS/MS methodology. Plasma samples were precipitated with acetonitrile:methanol (1:1) cocktail containing an internal standard. The brain samples were homogenized directly in ethylacetate or extracted from 5M guanidine homogenates with the liquid-liquid method. The resulting supernatant was evaporated to dryness and subjected to the LC/MS/MS analysis. For each compound 5 mice were used for the analysis. The brain-to-plasma ratios and plasma/brain Cmax levels were then determined (see, e.g., FIG. 8).

T2 sequence (P56817 46-501): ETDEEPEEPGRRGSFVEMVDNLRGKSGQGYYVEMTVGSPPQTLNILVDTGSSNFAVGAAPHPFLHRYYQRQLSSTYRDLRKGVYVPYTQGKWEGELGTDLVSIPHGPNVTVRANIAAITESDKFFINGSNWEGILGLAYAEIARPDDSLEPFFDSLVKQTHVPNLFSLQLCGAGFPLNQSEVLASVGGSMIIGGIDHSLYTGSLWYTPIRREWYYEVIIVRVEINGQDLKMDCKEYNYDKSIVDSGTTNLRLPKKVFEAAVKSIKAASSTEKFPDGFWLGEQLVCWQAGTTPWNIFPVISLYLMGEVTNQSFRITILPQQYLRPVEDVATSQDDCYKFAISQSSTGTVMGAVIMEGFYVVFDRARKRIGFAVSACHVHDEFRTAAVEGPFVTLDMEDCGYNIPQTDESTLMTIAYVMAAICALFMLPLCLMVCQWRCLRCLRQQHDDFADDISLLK
T1 sequence (P05067 650-699): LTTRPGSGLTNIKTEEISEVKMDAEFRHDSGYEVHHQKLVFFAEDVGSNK

Turning to `O=c1c(O)c(-c2ccccc2)oc2cc(O)cc(O)c12` [Galangin], on TRX-eAPP575-624, the “binding to APP by SPR” value is reported as “demonstrated binding to the APP substrate”. In addition, the “inhibition of BACE cleavage of the P5-P5′ substrate” value in data set [1] is recorded as “showing no inhibition of the P5-P5′ substrate”. The “inhibition of BACE cleavage of the MBP-C125 substrate” value in data set [2] (HTS at 10 uM, flavonoid panel at 100 uM) was “inhibiting the cleavage of the MBP substrate by BACE”. The “dose at which effective as an ASBI” value in data set [2] (in the ASBI assays) stood at 50 µM. In “in vivo”, the brain penetration entry is on record as “did show some brain penetration” and the “plasma levels versus brain tissue levels” value is “Plasma levels were greater than brain tissue levels”. In “in vivo” (sc, 10 mg/kg), the “brain Cmax of galangin” value was approximately 50 ng/g, the “brain to plasma ratio” value is listed as 1:10 and the concentration at 1 h was 40 ng/g.
